Reference: patent US20230332103A1, “Methods and Compositions for Generating Human Forebrain Neural Progenitor Cells and for Maturation Thereof to Parvalbumin+ Interneurons” (Trailhead Biosystems Inc., priority 2021, published 2023)
Entries after “also recorded” stand apart in the source; their conditions may differ.

Tests used:
[1] = system: stage 4 neural stem cells; assay: factor criticality analysis of stage 5 recipe; format: cell-based, human; settings: for effect on expression of somatostatin: FIG. 28; for contribution to expression of PVALB (Parvalbumin): FIG. 28-30
Protocol: To assess the impact of elimination of each validated factor, we again used dynamic profile analysis and compared the expression level of genes of interest in the absence of each finalized factor while others are present.
In the stage 5 recipe, each of seven finalized factors were removed while other factors were kept present and expression levels of PVALB and SST were assessed compared to the presence of all seven factors. […] 2-phospho-L-ascorbic acid, BDNF, IGF-1 were included in the stage 5 recipe (FIG. 28). […] Others were also found to increase the expression of somatostatin that was SST interneuron marker. So, they are excluded from the recipe and N2 was included in the stage 5 recipe (FIG. 29). […] Sodium pyruvate was included in the stage 5 recipe (FIG. 30).

[2] = system: cells after termination of stage 4 treatment; assay: HD-DoE 8-factor experiment for stage 5 recipe (JQ1, Indolactam-V, Oleic acid, BDNF, IGF-1, 2-phospho-L-Ascorbic acid, Albumax, MK2206), optimized for PVALB; format: cell-based, human; settings: for factor contribution on expression of PVALB: important input for maximum expression of PVALB, FIG. 21; for impact on expression of PVALB: model maximized for PVALB / dynamic profile, FIG. 21 and 22
Description: To further guide the differentiation of forebrain-committed neural stem cells to PVALB interneuron cells at stage 5, we performed a HD-DoE experiment for 3 days after termination of stage 4 treatment. At this time, we focused on maximum expression of PVALB that was expressed in Parvalbumin (+) interneurons and minimum expression of Somatostatin that is another type of interneurons. This 8-factor experiment included JQ1, Indolactam-V, Oleic acid, BDNF, IGF-1, 2-phospho-L-Ascorbic acid, Albumax, MK2206. […] Using dynamic profile analysis, we modified the model to achieve the maximum expression level of PVALB simultaneously and therefore 2-phospho-L-ascorbic acid, BDNF, IGF1 were included while MK2206, Albumax, and JQ1 are excluded (FIG. 22). Considering the model at different optimization settings for maximum differentiation of cells toward ventral forebrain, the recipe for stage 5 of differentiation included BDNF, IGF-1, 2-phospho-L-ascorbic acid from this HD-Doe experiment.

[3] = system: human pluripotent stem cells; assay: additional HD-DoE experiment for stage 1 (forebrain differentiation from pluripotency), optimized for FEZF2; format: cell-based; settings: for impact on expression of FEZF2: dynamic profile, FIG. 6; for factor contribution on expression of FEZF2: positive impact, additional stage 1 experiment optimized for FEZF2, FIG. 5
Protocol: To identify the recipe for stage 1 of differentiation, 96 different combinations of effectors generated using Design-of-Experiments compression through D-optimality were robotically prepared. The effector combinations were prepared in a basal media and were subsequently added to the cells, which were then allowed to differentiate. Three days later RNA extraction was performed, and gene expression was obtained using quantitative PCR analysis. The data were normalized and modeled using partial least squares regression analysis to the effector design, resulting in the generation of gene-specific models, which after model tuning for maximal Q2 predictive power, provided explanation of the effectors ability to control the expression of individual genes, combinatorially, and individually. Solutions within the tested space could then be explored to address desirability.
To further enhance the conditions for forebrain differentiation from pluripotency, an additional HD-DoE experiment was performed. Additional gene regulatory models were obtained that were used for preparation of the differentiation protocol. The factors in this experiment included LDN193189, PD173074, BLU9931, Purmorphamine, SC79, MK2206, ZM336372, PD0325901, CHIR99021, XAV939, UCLA-GP130, Tofacitinib and GO6983. […] Dynamic profile analysis was also used to assess the interaction between the effectors.

[4] = system: human pluripotent stem cells; assay: factor criticality analysis (dynamic profile analysis) of stage 1 recipe; format: cell-based; set-up: unit not given here; settings: other five factors present; for expression level of FEZF2 when the effector is removed: 2000 with all six factors; for expression level of SIX3 when the effector is removed: 3000 with all six factors; for expression level of OTX2 when the effector is removed: 5500 with all six factors
Protocol: (§1) To assess the impact of the elimination of each validated factor, dynamic profile analysis was used and compared the expression level of genes of interest in absence of each finalized factor while others are present.
In the stage 1 recipe, each of the six finalized factors were removed individually while the other five factors were present and expression levels of forebrain genes was assessed compared to the presence of all six factors together. The results are summarized in FIG. 11A-B. When LDN193189 was removed, expression levels of FEZF2, OTX2 and SIX3 were decreased drastically from 2000 to 1000, 5500 to 4000 and 3000 to 0, respectively. […] When Purmorphamine was removed, levels of FEZF2 and SIX3 were decreased to 1000 and below 3000, while levels of OTX2 increased to 6500.

[5] = system: forebrain-committed neural stem cells (stage 1 neural stem cells); assay: factor criticality analysis (dynamic profile analysis) of stage 2 recipe; format: cell-based, human; settings: stage 2 recipe, other three factors present; for expression level of PAX6 in the absence of the effector: 0 with all four factors; for expression level of NKX2-2 in the absence of the effector: 100 with all four factors; for expression level of NKX2-1 in the absence of the effector: 5000 with all four factors
Protocol: as §1
In the stage 2 recipe, each of the four finalized factors were removed while the other three factors remained present and expression levels of NKX2-1, PAX6 and NKX2-2 were assessed compared to presence of all four factors. The results are summarized in FIG. 13A-B. Absence of PD0325901 reduced the levels of NKX2-1 and NKX2-2 while increasing PAX6 from 5000 to 3200, 100 to 0 and 0 to 5000, respectively. […] Removing XAV939 reduced the levels of NKX2-1 from 5000 to 3000, while increasing both PAX6 and NKX2-2 to 10000 and 200, respectively. Another observation was the interaction between XAV939 and Purmorphamine. In the absence of XAV939, the impact of Purmorphamine on NKX2-1 became negative and, as it is shown in interaction plot of FIG. 14, the level of NKX2-1 is higher when both factors are present.

[6] = system: human pluripotent stem cells; assay: HD-DoE 12-factor experiment for stage 1 recipe, gene expression by quantitative PCR after 3 days; format: cell-based; settings: for factor contribution on expression of OTX2: model of maximum expression of OTX2
Description: This example utilizes a method of High-Dimensional Design of Experiments (HD-DoE), as previously described in Bukys et al. (2020) […] 23:101346. The method employs computerized design geometries to simultaneously test multiple process inputs and offers mathematical modeling of a deep effector/response space. The method allows for finding combinatorial signaling inputs that control a complex process, such as during cell differentiation. It allows testing of multiple plausible critical process parameters, as such parameters impact output responses, such as gene expression. Because gene expression provides hallmark features of the phenotype of, for example, a human cell, the method can be applied to identify, and understand, which signaling pathways control cell fate. In the current example, the HD-DOE method was applied with the intent to find conditions for induction of […] neural progenitor-expressed genes, directly from the pluripotent stem cell state. To develop the recipe for each stage, the impact of agonists and antagonists of multiple signaling pathways (herein called effectors) on the expression of two sets of 53 pre-selected genes, after a 3-day treatment, has been tested and modeled. These effectors are small molecules or proteins that are commonly used during stepwise differentiation of stem cells to specific fates. Choice of the effectors were based on current literature on neural induction in forebrain region of developing brain and differentiation of stem cells to neural progenitors. To test the effectors, experiments with at least 8 factors were designed that can assess the response of cells to 48 or more different combinations of effectors in a range of concentrations. To analyze the models, we focused on expression of genes involved in development and patterning of the anterior neuroectoderm and forebrain including OTX2 (Hoch et al. (2015) Cell Reports 12:482-494), SIX3 (Lagutin et al. (2003) Genes & Development 17:368-379) and FEZF2 (Zhang et al. (2014) Development 141:4794-[…]). At later stages we focused on dorsoventral patterning of telencephalon and gene expressed in ventral forebrain including NKX2-1 and absence of PAX6 which is a dorsal forebrain marker (Stoykova et al. (2000) J. Neurosci. 20:8042-8050). The impact of each effector on gene expression level is defined by a parameter called factor contribution that is calculated for each effector during the modeling. To identify the recipe for stage 1 of differentiation, 96 different combinations of effectors generated using Design-of-Experiments compression through D-optimality were robotically prepared. The effector combinations were prepared in a basal media and were subsequently added to the cells, which were then allowed to differentiate. Three days later RNA extraction was performed, and gene expression was obtained using quantitative PCR analysis. […] Solutions within the tested space could then be explored to address desirability. Optimizing for maximal expression of SIX3 at 3300 and FEZF2 1355 expression values led to robust solutions. This model was derived from testing 12 effectors including AGN193109, LDN193189, CHIR99021, XAV939, IGF2, Purmorphamine, 4-oxo-RA, TTNPB, SR11237, FGF8, PD0325901 and […]. […] The model was also optimized for maximum expression of FEZF2 separately at 3576 expression value to find any additional factors that can boost expression of forebrain genes. […] To find the set of factors that have the potential to optimize all 3 genes in this experiment, a new assessment was done through dynamic profile analysis with focus on maximal expression of OTX2, FEZF2 and SIX3.

[7] = system: forebrain-committed neural stem cells (stage 1 neural stem cells); assay: HD-DoE 12-factor experiment for stage 2 recipe, optimized for NKX2-1; format: cell-based, human; settings: model maximized for NKX2-1 / dynamic profile, FIG. 7 and 8
Protocol: To further guide the differentiation of forebrain-committed neural stem cells to ventral forebrain neural stem cells at stage 2, a HD-DoE experiment was performed for 3 days after termination of stage 1 treatment. At this time, we focused on maximum expression of NKX2-1 that is expressed in ventral forebrain region and minimum expression of PAX6 that is expressed in dorsal forebrain region. This 12-factor experiment included LDN193189, BMP7, PD0325901, MK2206, A8301, XAV939, CHIR99021, Purmorphamine, SANT-1, AGN193109, TTNPB and GSI-XX.

Which results are given for `O=C1O[C@H]([C@@H](O)CO)C(O)=C1OP(=O)(O)O` [2-phospho-L-ascorbic acid]?
effect on expression of somatostatin [1]: did not change; contribution to expression of PVALB (Parvalbumin) [1]: positive contribution; factor contribution on expression of PVALB [2]: 15.04; impact on expression of PVALB [2]: increase its expression level; impact on expression of PVALB ([2]; listed as 2-phospho-L-Ascorbic acid): positive impact

`CC(C)[C@H]1C(=O)N[C@H](CO)Cc2c[nH]c3cccc(c23)N1C` [Indolactam-V] was tested. Which “impact on expression of PVALB” value [2] did it give?
The value was “increase its expression level; also recorded: positive impact”.

`CCCCCCCC/C=C\CCCCCCCC(=O)OC[C@@H](O)COP(=O)(O)O` [O-LPA, 1-Oleoyl lysophosphatidic acid] was tested. Which “contribution to expression of GAD1” value ([1]; FIG. 31) did it give?
The value was “contribute to the expression”.

And the “contribution to expression of LHX6” value ([1]; FIG. 31)?
Its value is “contribute to the expression”.

For `CCCCCCCC/C=C\CCCCCCCC(=O)O` [Oleic acid], which “impact on expression of PVALB” value [2] is on record?
The value was “increase its expression level; also recorded: positive impact”.

What does the source list for `O=C(NOC[C@H](O)CO)c1ccc(F)c(F)c1Nc1ccc(I)cc1F` [PD0325901]?
impact on expression of FEZF2 [3]: positive impact; factor contribution on expression of FEZF2 [3]: 15; expression level of FEZF2 when the effector is removed [4]: drop; expression level of SIX3 when the effector is removed [4]: did not have a significant impact; expression level of OTX2 when the effector is removed [4]: did not have a significant impact; expression level of PAX6 in the absence of the effector [5]: 5000; expression level of NKX2-2 in the absence of the effector [5]: 0; expression level of NKX2-1 in the absence of the effector [5]: 3200; factor contribution on expression of OTX2 ([6]; positive impact): low; factor contribution on expression of FEZF2 ([6]; positive impact, model optimized for maximum expression of FEZF2): 10; impact on expression of NKX2-1 [7]: increase its expression level; also recorded: Positive impact

What does the source list for `Oc1nc(-c2ccc(C(F)(F)F)cc2)nc2c1CSCC2` [XAV939]?
impact on expression of FEZF2 [3]: positive impact; factor contribution on expression of FEZF2 [3]: 12; expression level of FEZF2 when the effector is removed [4]: 1700; expression level of SIX3 when the effector is removed [4]: 1000; expression level of OTX2 when the effector is removed [4]: 5000; expression level of PAX6 in the absence of the effector [5]: 10000; expression level of NKX2-2 in the absence of the effector [5]: 200; expression level of NKX2-1 in the absence of the effector [5]: 3000; impact on expression of OTX2 ([6]; dynamic profile analysis, FIG. 4): positive impact; factor contribution on expression of OTX2 ([6]; positive impact): low; factor contribution on expression of SIX3 ([6]; positive impact, model optimized for maximal expression of SIX3, 3-day treatment): 5; impact on expression of NKX2-1 [7]: increase its expression level; also recorded: Positive impact

B1: BDNF: brain-derived neurotrophic factor, ligand of BDNFR signaling pathway (protein, UniProt P23560 19-247, looked up)
Neurotrophic factor BDNF …: APMKEANIRGQGGLAYPGVRTHGTLESVNGPKAGSRGLTSLADTFEHVIEELLDEDQKVRPNEENNKDADLYTSRVMLSSQVPLEPPLLFLLEEYKNYLDAANMSMRVRRHSDPARRGELSVCDSISEWVTAADKKTAVDMSGGTVTVLEKVPVSKGQLKQYFYETKCNPMGYTKEGCRGIDKRHWNSQCRTTQSYVRALTMDSKKRIGWRFIRIDTSCVCTLTIKRGR
Which results are given for B1?
effect on expression of somatostatin [1]: did not change; contribution to expression of PVALB (Parvalbumin) [1]: positive contribution; factor contribution on expression of PVALB [2]: 14.6; impact on expression of PVALB [2]: increase its expression level; also recorded: positive impact
